Numbered stars: 1 amine (or outer) side, 2 acyl side, 3 side chain; on linkers, the order of the positions; unused ones are H or OH. Side chains are listed from the residue outwards. Peptide text beside a SMILES is read from it. * marks the point of attachment. X1 = O=C(CCCCCCCCCCCCCCCc1nnn[nH]1)NS(=O)(=O)CCCC(=O)*; C18 diacid = O=C(O)CCCCCCCCCCCCCCCCC(=O)*; γGlu = O=C(O)[C@H](CCC(=O)[*:2])N[*:1]; AEEA = NCCOCCOCC(=O)O
Legend:
[1] = target: T1, glucagon receptor (Homo sapiens, UniProt P47871); assay: Assay (I) Glucagon activity (cAMP biosensor, FLIPR); type: cell-based
T1 construct: expressed in transfected cells

[2] = Assay (X) Chemical stability assessment by RP-UPLC; type: physicochemical; conditions: pH 8.15, 14 days at 37° C. vs 5° C., 333 μM

T1 sequence (P47871 26-477): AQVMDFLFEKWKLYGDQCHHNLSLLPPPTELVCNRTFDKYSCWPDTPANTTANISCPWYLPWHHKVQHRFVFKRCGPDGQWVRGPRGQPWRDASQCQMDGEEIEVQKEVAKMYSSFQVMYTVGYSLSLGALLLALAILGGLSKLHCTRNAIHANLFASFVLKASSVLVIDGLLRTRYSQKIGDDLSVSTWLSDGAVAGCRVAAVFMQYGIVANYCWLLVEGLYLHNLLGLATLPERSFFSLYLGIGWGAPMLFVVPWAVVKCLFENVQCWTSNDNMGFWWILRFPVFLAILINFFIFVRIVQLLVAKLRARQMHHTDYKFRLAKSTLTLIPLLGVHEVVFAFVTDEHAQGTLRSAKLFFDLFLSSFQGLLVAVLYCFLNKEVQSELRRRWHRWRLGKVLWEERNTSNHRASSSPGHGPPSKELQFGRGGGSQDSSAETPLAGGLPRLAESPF

Row | Structure (SMILES) | EC50 [1] [nM] | Chemical stability [Purity loss/14 days 37 C.] [2] [%]
1 | CC(C)C[C@H](NC(=O)[C@H](Cc1c[nH]c2ccccc12)NC(=O)[C@H](CCCCNC(=O)CC[C@H](NC(=O)COCCOCCNC(=O)COCCOCCNC(=O)CC[C@H](NC(=O)CC[C@H](NC(=O)CCCCCCCCCCCCCCCCC(=O)O)C(=O)O)C(=O)O)C(=O)O)NC(=O)[C@@H](NC(=O)[C@H](Cc1ccccc1)NC(=O)[C@H](CCC(=O)O)NC(=O)[C@H](CCC(N)=O)NC(=O)[C@H](C)NC(=O)[C@H](CCCNC(=N)N)NC(=O)[C@H](CCCNC(=N)N)NC(=O)[C@@H](NC(=O)[C@H](CC(=O)O)NC(=O)[C@H](CC(C)C)NC(=O)[C@H](Cc1ccc(O)cc1)NC(=O)[C@H](CCCNC(=N)N)NC(=O)[C@H](CO)NC(=O)[C@@H](NC(=O)[C@H](CC(=O)O)NC(=O)[C@H](CO)NC(=O)[C@@H](NC(=O)[C@H](Cc1ccccc1)NC(=O)[C@@H](NC(=O)CNC(=O)[C@H](CCC(N)=O)NC(=O)[C@H](CO)NC(=O)[C@@H](N)Cc1c[nH]cn1)[C@@H](C)O)[C@@H](C)O)C(C)C)[C@@H](C)O)C(C)C)C(=O)N[C@@H](CC(C)C)C(=O)N[C@@H](CO)C(=O)N[C@H](C(=O)O)[C@@H](C)O [Example 64, N^ε24-[(4S)-4-carboxy-4-[[2-[2-[2-[[2-[2-[2-[[(4S)-4-carboxy-4-[[(4S)-4-carboxy-4-(17-carboxyheptadecanoylamino)butanoyl]amino]butanoyl]amino]ethoxy]ethoxy]acetyl]amino]ethoxy]ethoxy]acetyl]amino]butanoyl]-[Val10,Arg12,Thr16,Glu21,Lys24,Leu27,Ser28]-Glucagon] (H-HSQGTFTSDVSRYLDTRRAQEFVK([γGlu-AEEA-AEEA-γGlu-γGlu-C18 diacid])WLLST-OH) | 0.176 | 5.1
2 | CC(C)C[C@H](NC(=O)[C@H](Cc1ccc(O)cc1)NC(=O)[C@H](CCCCN)NC(=O)[C@H](CO)NC(=O)[C@H](Cc1ccc(O)cc1)NC(=O)[C@H](CC(=O)O)NC(=O)[C@H](CO)NC(=O)[C@@H](NC(=O)[C@H](Cc1ccccc1)NC(=O)[C@@H](NC(=O)CNC(=O)[C@H](CCC(N)=O)NC(=O)[C@H](CO)NC(=O)[C@@H](N)Cc1c[nH]cn1)[C@@H](C)O)[C@@H](C)O)C(=O)N[C@@H](CCC(=O)O)C(=O)N[C@@H](CO)C(=O)N[C@@H](CCCNC(=N)N)C(=O)N[C@@H](CCCNC(=N)N)C(=O)N[C@@H](C)C(=O)N[C@@H](CCC(N)=O)C(=O)N[C@@H](CC(=O)O)C(=O)N[C@@H](Cc1ccccc1)C(=O)N[C@H](C(=O)N[C@@H](CCCCNC(=O)CC[C@H](NC(=O)CC[C@H](NC(=O)COCCOCCNC(=O)CC[C@H](NC(=O)CCCS(=O)(=O)NC(=O)CCCCCCCCCCCCCCCc1nnn[nH]1)C(=O)O)C(=O)O)C(=O)O)C(=O)N[C@@H](Cc1c[nH]c2ccccc12)C(=O)N[C@@H](CC(C)C)C(=O)N[C@@H](CC(C)C)C(=O)N[C@@H](CO)C(=O)N[C@H](C(=O)O)[C@@H](C)O)C(C)C [Example 65, N^ε24-[(4S)-4-carboxy-4-[[(4S)-4-carboxy-4-[[2-[2-[2-[[(4S)-4-carboxy-4-[4-[16-(1H-tetrazol-5-yl)hexadecanoylsulfarnoyl]butanoylamino]butanoyl]amino]ethoxy]ethoxy]acetyl]amino]butanoyl]amino]butanoyl]-[Glu15,Lys24,Leu27,Ser28]-Glucagon] (H-HSQGTFTSDYSKYLESRRAQDFVK([γGlu-γGlu-AEEA-γGlu-X1])WLLST-OH; N-terminus and C-terminus assumed) | 0.362 | 7.8
3 | CC(C)C[C@H](NC(=O)[C@H](Cc1ccc(O)cc1)NC(=O)[C@H](CCCCN)NC(=O)[C@H](CO)NC(=O)[C@H](Cc1ccc(O)cc1)NC(=O)[C@H](CC(=O)O)NC(=O)[C@H](CO)NC(=O)[C@@H](NC(=O)[C@H](Cc1ccccc1)NC(=O)[C@@H](NC(=O)CNC(=O)[C@H](CCC(N)=O)NC(=O)[C@H](CO)NC(=O)[C@@H](N)Cc1c[nH]cn1)[C@@H](C)O)[C@@H](C)O)C(=O)N[C@@H](CCC(=O)O)C(=O)N[C@@H](CO)C(=O)N[C@@H](CCCNC(=N)N)C(=O)N[C@@H](CCCNC(=N)N)C(=O)N[C@@H](C)C(=O)N[C@@H](CCC(N)=O)C(=O)N[C@@H](CC(=O)O)C(=O)N[C@@H](Cc1ccccc1)C(=O)N[C@H](C(=O)N[C@@H](CCCCNC(=O)CC[C@H](NC(=O)CC[C@H](NC(=O)COCCOCCNC(=O)CCCS(=O)(=O)NC(=O)CCCCCCCCCCCCCCCc1nnn[nH]1)C(=O)O)C(=O)O)C(=O)N[C@@H](Cc1c[nH]c2ccccc12)C(=O)N[C@@H](CC(C)C)C(=O)N[C@@H](CC(C)C)C(=O)N[C@@H](CO)C(=O)N[C@H](C(=O)O)[C@@H](C)O)C(C)C [Example 66, N^ε24-[(4S)-4-carboxy-4-[[(4S)-4-carboxy-4-[[2-[2-[2-[4-[16-(1H-tetrazol-5-yl)hexadecanoylsulfarnoyl]butanoylamino]ethoxy]ethoxy]acetyl]amino]butanoyl]amino]butanoyl][Glu15,Lys24,Leu27,Ser28]-Glucagon] (H-HSQGTFTSDYSKYLESRRAQDFVK([γGlu-γGlu-AEEA-X1])WLLST-OH; N-terminus and C-terminus assumed) | 0.395 | 8.3
4 | CC(C)C[C@H](NC(=O)[C@H](CC(=O)O)NC(=O)[C@H](CC(C)C)NC(=O)[C@H](Cc1ccc(O)cc1)NC(=O)[C@H](CCCNC(=N)N)NC(=O)[C@H](CO)NC(=O)[C@H](Cc1ccc(O)cc1)NC(=O)[C@H](CC(=O)O)NC(=O)[C@H](CO)NC(=O)[C@@H](NC(=O)[C@H](Cc1ccccc1)NC(=O)[C@@H](NC(=O)CNC(=O)[C@H](CCC(N)=O)NC(=O)[C@H](CO)NC(=O)[C@@H](N)Cc1c[nH]cn1)[C@@H](C)O)[C@@H](C)O)C(=O)N[C@@H](CCCNC(=N)N)C(=O)N[C@@H](CCCNC(=N)N)C(=O)N[C@@H](C)C(=O)N[C@@H](CCC(N)=O)C(=O)N[C@@H](CC(=O)O)C(=O)N[C@@H](Cc1ccccc1)C(=O)N[C@H](C(=O)N[C@@H](CCCCNC(=O)CC[C@H](NC(=O)CC[C@H](NC(=O)COCCOCCNC(=O)COCCOCCNC(=O)CC[C@H](NC(=O)CCCS(=O)(=O)NC(=O)CCCCCCCCCCCCCCCc1nnn[nH]1)C(=O)O)C(=O)O)C(=O)O)C(=O)N[C@@H](Cc1c[nH]c2ccccc12)C(=O)N[C@@H](CC(C)C)C(=O)N[C@@H](CC(C)C)C(=O)N[C@@H](CO)C(=O)N[C@H](C(=O)O)[C@@H](C)O)C(C)C [Example 67, N^ε24-[(4S)-4-carboxy-4-[[(4S)-4-carboxy-4-[[2-[2-[2-[[2-[2-[2-[[(4S)-4-carboxy-4-[4-[16-(1H-tetrazol-5-yl)hexadecanoylsulfannoyl]butanoylamino]butanoyl]amino]ethoxy]ethoxy]acetyl]amino]ethoxy]ethoxy]acetyl]amino]butanoyl]amino]butanoyl]-[Arg12,Leu16,Lys24,Leu27,Ser28]-Glucagon] (H-HSQGTFTSDYSRYLDLRRAQDFVK([γGlu-γGlu-AEEA-AEEA-γGlu-X1])WLLST-OH) | 0.231 | 7.4
5 | CC(C)C[C@H](NC(=O)[C@H](CC(=O)O)NC(=O)[C@H](CC(C)C)NC(=O)[C@H](Cc1ccc(O)cc1)NC(=O)[C@H](CCCNC(=N)N)NC(=O)[C@H](CO)NC(=O)[C@H](Cc1ccc(O)cc1)NC(=O)[C@H](CC(=O)O)NC(=O)[C@H](CO)NC(=O)[C@@H](NC(=O)[C@H](Cc1ccccc1)NC(=O)[C@@H](NC(=O)CNC(=O)[C@H](CCC(N)=O)NC(=O)[C@H](CO)NC(=O)[C@@H](N)Cc1c[nH]cn1)[C@@H](C)O)[C@@H](C)O)C(=O)N[C@@H](CCCNC(=N)N)C(=O)N[C@@H](CCCNC(=N)N)C(=O)N[C@@H](C)C(=O)N[C@@H](CCC(N)=O)C(=O)N[C@@H](CC(=O)O)C(=O)N[C@@H](Cc1ccccc1)C(=O)N[C@H](C(=O)N[C@@H](CCCCNC(=O)CC[C@H](NC(=O)CC[C@H](NC(=O)COCCOCCNC(=O)COCCOCCNC(=O)CCCS(=O)(=O)NC(=O)CCCCCCCCCCCCCCCc1nnn[nH]1)C(=O)O)C(=O)O)C(=O)N[C@@H](Cc1c[nH]c2ccccc12)C(=O)N[C@@H](CC(C)C)C(=O)N[C@@H](CC(C)C)C(=O)N[C@@H](CO)C(=O)N[C@H](C(=O)O)[C@@H](C)O)C(C)C [Example 68, N^ε24-[(4S)-4-carboxy-4-[[(4S)-4-carboxy-4-[[2-[2-[2-[[2-[2-[2-[4-[16-(1H-tetrazol-5-yl)hexadecanoylsulfannoyl]butanoylamino]ethoxy]ethoxy]acetyl]amino]ethoxy]ethoxy]acetyl]amino]butanoyl]amino]butanoyl]-[Arg12, Leu16, Lys24, Leu27,Ser28]-Glucagon] (H-HSQGTFTSDYSRYLDLRRAQDFVK([γGlu-γGlu-AEEA-AEEA-X1])WLLST-OH) | 0.357 | 5.6
6 | CC(C)C[C@H](NC(=O)[C@H](Cc1ccc(O)cc1)NC(=O)[C@H](CCCCN)NC(=O)[C@H](CO)NC(=O)[C@H](Cc1ccc(O)cc1)NC(=O)[C@H](CC(=O)O)NC(=O)[C@H](CO)NC(=O)[C@@H](NC(=O)[C@H](Cc1ccccc1)NC(=O)[C@@H](NC(=O)CNC(=O)[C@H](CCC(N)=O)NC(=O)[C@H](CO)NC(=O)[C@@H](N)Cc1c[nH]cn1)[C@@H](C)O)[C@@H](C)O)C(=O)N[C@@H](CCC(=O)O)C(=O)N[C@@H](CO)C(=O)N[C@@H](CCCNC(=N)N)C(=O)N[C@@H](CCCNC(=N)N)C(=O)N[C@@H](C)C(=O)N[C@@H](CCC(N)=O)C(=O)N[C@@H](CC(=O)O)C(=O)N[C@@H](Cc1ccccc1)C(=O)N[C@H](C(=O)N[C@@H](CCCCNC(=O)CC[C@H](NC(=O)CC[C@H](NC(=O)COCCOCCNC(=O)COCCOCCNC(=O)CC[C@H](NC(=O)CCCCCCCCCCCCCCC(=O)O)C(=O)O)C(=O)O)C(=O)O)C(=O)N[C@@H](Cc1c[nH]c2ccccc12)C(=O)N[C@@H](CC(C)C)C(=O)N[C@@H](CC(C)C)C(=O)N[C@@H](CO)C(=O)N[C@H](C(=O)O)[C@@H](C)O)C(C)C [Example 69, N^ε24-[(4S)-4-carboxy-4-[[(4S)-4-carboxy-4-[[2-[2-[2-[[2-[2-[2-[[(4S)-4-carboxy-4-(15-carboxypentadecanoylamino)butanoyl]amino]ethoxy]ethoxy]acetyl]amino]ethoxy]ethoxy]acetyl]amino]butanoyl]amino]butanoyl]-[Glu15,Lys24,Leu27,Ser28]-Glucagon] | 0.071 | 8.2

Source: US9486506B2 (Novo Nordisk A/S, priority 2011, dated 2016)
